Assay results as given in patent US20220409631A1, “METHODS OF INDUCING OR ENHANCING FARNESOID X RECEPTOR (FXR)-MEDIATED TRANSCRIPTIONAL RESPONSE” (YALE UNIVERSITY, priority 2019, published 2022).
Entries after “also recorded” stand apart in the source; their conditions may differ. Read-outs that look alike come from different tables or passages of the source.

Experiments:
Type in all cases: cell-based
ER-α = target: T1, ER-α (Homo sapiens, UniProt P03372); assay: Hormone receptor signaling pathway selectivity: ER-α mediated transcriptional response; details: with E2
T1 sequence (P03372 1-595): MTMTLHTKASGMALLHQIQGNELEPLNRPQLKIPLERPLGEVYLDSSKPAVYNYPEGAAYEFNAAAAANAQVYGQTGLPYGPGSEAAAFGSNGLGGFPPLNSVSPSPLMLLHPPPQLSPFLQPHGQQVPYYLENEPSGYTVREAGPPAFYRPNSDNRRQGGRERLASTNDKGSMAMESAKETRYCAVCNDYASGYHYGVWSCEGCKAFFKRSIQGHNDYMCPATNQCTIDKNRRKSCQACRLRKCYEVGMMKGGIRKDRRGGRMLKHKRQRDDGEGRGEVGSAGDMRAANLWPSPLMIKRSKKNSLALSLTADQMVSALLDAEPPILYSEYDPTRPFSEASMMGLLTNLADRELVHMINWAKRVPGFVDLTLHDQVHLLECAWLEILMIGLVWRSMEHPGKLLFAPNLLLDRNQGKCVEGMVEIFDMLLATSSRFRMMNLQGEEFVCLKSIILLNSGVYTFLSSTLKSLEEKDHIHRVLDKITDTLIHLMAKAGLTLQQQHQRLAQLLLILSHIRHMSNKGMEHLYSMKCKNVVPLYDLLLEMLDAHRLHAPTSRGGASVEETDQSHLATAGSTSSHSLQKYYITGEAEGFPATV

VDR = target: T2, VDR (Homo sapiens, UniProt P11473); assay: Hormone receptor signaling pathway selectivity: VDRE (VDR); details: for EC50: biphasic model of action, read-out: EC50, stimulation of VDR activity; for IC50: with VD3
T2 sequence (P11473 1-427): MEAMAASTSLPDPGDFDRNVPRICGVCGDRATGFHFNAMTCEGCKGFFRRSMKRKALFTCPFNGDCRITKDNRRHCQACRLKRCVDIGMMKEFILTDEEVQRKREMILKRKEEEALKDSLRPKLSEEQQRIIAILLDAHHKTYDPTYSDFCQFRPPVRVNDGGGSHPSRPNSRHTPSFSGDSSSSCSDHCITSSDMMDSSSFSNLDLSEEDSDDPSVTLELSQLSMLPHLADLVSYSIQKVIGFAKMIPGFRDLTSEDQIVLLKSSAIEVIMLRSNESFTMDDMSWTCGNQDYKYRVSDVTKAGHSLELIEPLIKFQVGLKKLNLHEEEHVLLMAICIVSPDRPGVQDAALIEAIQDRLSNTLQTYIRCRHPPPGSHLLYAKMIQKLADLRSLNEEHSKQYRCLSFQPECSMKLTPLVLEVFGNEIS

ER-β = ER-β (Homo sapiens, UniProt Q92731); assay: Hormone receptor signaling pathway selectivity: ER-β; details: with E2
FXR = target: T3, FXR (Homo sapiens, UniProt Q96RI1); assay: FXR luciferase reporter assay in HepG2 reporter cells; details: for EC50: no ligand added, read-out: FXR (stimulation EC50); for induction of FXR activity / FXR mediated transcriptional response: HepG2 FXR-luciferase reporter cells
T3 construct: HepG2 cells were stably transfected with either FXR reporter DNA; endogenous in cells; host or cells: HepG2 cells stably transfected with a 3x FXR response element PGL4.2 luciferase reporter
T3 sequence (Q96RI1 1-486): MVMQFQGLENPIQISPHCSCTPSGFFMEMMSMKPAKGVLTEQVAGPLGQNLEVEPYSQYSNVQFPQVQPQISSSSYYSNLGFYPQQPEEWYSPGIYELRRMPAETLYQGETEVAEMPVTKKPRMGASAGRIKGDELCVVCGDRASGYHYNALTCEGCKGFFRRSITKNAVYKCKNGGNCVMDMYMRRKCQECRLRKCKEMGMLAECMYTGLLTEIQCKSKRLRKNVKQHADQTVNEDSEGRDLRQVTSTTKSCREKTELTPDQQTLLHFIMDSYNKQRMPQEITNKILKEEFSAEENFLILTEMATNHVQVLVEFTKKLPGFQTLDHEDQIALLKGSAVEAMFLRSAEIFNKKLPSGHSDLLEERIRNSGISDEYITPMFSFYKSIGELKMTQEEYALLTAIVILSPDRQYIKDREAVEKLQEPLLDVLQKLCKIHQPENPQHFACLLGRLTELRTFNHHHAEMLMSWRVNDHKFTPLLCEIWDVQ
Procedure: FXR luciferase reporter cells—FXR luciferase reporter cells—HepG2 cancer cells were used in the screening study. HepG2 cells were stably transfected with either FXR reporter DNA in which 3 repeated response element ([…])(SEQ ID NO:2) was inserted in-PGL4.2 luciferase reporter plasmid or LXR reporter DNA in which 3 repeated response element ([…])(SEQ ID NO:3) was inserted in PGL4.2 luciferase reporter plasmid. Reporter cells were selected by puromycin (1 ug/mL) in RPMI-1640 medium with 10% FBS.
Luciferase assay—Reporter cells were treated with compounds at 0, 10, 20, 40, and […] for 24h in a 37° C.-CO2 incubator with or without chenodeoxycholic acid (CDCA) for FXR reporter cells or GW3965 for LXR reporter cells. Cells were lysed using luciferase lysis buffer after which luciferase buffer with luciferin was added to generate luminescence. Luminescence was recorded using a luminescence microplate reader.

AR = target: T4, AR (Homo sapiens, UniProt P10275); assay: Hormone receptor signaling pathway selectivity: AR; details: with DHT
T4 sequence (P10275 1-920): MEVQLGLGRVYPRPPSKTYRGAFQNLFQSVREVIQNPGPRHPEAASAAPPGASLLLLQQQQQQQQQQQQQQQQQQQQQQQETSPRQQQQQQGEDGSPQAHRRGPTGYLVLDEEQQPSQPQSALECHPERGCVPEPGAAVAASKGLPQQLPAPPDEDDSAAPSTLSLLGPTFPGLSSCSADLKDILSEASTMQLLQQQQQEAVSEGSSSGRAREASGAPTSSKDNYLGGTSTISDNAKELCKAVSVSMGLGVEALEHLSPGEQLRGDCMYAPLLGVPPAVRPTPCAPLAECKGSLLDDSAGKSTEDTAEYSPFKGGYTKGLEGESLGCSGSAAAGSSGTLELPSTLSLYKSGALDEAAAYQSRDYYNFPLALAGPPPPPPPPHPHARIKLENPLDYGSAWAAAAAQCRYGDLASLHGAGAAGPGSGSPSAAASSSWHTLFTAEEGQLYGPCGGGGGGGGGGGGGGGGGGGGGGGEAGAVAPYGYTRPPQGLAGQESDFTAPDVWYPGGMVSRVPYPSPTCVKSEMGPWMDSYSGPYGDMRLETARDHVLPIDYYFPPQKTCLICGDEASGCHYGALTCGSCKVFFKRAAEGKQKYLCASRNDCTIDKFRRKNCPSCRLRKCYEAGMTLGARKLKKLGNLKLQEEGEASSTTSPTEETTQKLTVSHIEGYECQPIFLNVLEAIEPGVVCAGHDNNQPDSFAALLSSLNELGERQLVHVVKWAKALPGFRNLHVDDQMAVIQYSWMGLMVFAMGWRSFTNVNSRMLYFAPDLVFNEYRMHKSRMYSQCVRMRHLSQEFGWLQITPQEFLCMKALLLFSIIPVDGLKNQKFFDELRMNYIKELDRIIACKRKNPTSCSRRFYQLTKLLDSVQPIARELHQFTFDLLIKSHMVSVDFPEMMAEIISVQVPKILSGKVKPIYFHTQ

PPARa = assay: RT-qPCR for FXR target genes in HepG2 cells: PPARa; details: concentration of about 75 μM to 85
Procedure: (§1) Real Time Quantitative PCR (RT-qPCR)—Real Time Quantitative PCR (RT-qPCR) for FXR target genes: RNA was extracted from NZZ compounds treated cells using the Roche High Pure RNA isolation kit. cDNA was then generated from RNA samples using Bio-rad iScript Advanced cDNA synthesis kit for RT-qPCR. qPCR was performed using primers as shown in the Table 1 and iTaq™ Universal SYBR® Green Supermix in CFX PCR machine (Bio-rad). Relative mRNA expression was calculated based on the change of the threshold cycle relative to the internal control, (3-actin, using a standard curve generated by purified PCR products.

BACS = assay: RT-qPCR for FXR target genes in HepG2 cells: BACS
Procedure: as §1

CYP7A1 = assay: RT-qPCR for FXR target genes in HepG2 cells: CYP7A1; details: concentration of about 35 μM to 45
Procedure: as §1

[1] = test system: other hormone receptor signaling pathways; assay: Selectivity for different hormone receptor signaling pathways (panel)
[2] = read-out: ER-α with ligand E2 (inhibition IC50)
[3] = read-out: VDRE with ligand VD3 (inhibition IC50)
[4] = read-out: ER-β with ligand E2 (inhibition IC50)
[5] = read-out: AR with ligand DHT (inhibition IC50)
[6] = read-out: IC50, inhibition of VD3 action on VDR
[7] = read-out: IC50, inhibition of DHT action on AR

Chain of ER-β (Q92731 whole entry, species assumed): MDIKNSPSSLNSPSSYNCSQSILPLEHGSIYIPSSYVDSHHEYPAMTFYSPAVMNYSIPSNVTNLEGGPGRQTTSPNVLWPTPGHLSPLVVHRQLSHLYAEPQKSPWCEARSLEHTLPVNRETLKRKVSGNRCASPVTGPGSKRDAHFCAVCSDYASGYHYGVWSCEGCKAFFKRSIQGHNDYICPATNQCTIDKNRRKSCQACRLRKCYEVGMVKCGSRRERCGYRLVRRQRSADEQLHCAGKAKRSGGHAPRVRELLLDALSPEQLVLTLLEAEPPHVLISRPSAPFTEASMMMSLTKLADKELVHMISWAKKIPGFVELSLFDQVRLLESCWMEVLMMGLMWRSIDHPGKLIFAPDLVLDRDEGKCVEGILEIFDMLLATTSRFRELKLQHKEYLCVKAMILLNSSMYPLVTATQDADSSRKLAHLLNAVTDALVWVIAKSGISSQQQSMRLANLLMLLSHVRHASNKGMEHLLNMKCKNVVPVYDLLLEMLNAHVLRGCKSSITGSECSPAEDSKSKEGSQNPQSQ

EC50 (VDR)	SMILES	IC50 (ER-α; [2])	IC50 (VDR; [3])	IC50 (ER-β; [4])	EC50 (FXR)	IC50 (AR; [5])	IC50 (VDR; [6])	IC50 (AR; [7])	PPARa mRNA expression, fold higher than that induced by compound (II) (PPARa)	BACS mRNA expression, fold lower than the CDCA induced BACS expression (BACS)	inhibition of CYP7A1, stronger than by compound (II) or by CDCA (CYP7A1)	induction of FXR activity / FXR mediated transcriptional response (FXR)	impact on other hormone receptor signaling pathways [1]	IC50 (ER-α; read-out: IC50, inhibition of E2 triggered ERα mediated transcriptional response)	IC50 (ER-β; read-out: IC50, inhibition of E2 action on ERβ)
1.5 µM	C=C(CCC(C(=O)O)C1CCC2(C)C3=CCC4C(C)(CCC(O)C4(C)C)C3=CCC12C)C(C)C (centres unmarked) [compound (X)]	> 80 µM	> 80 µM	> 80 µM	> 80 µM	> 80 µM									
	CC(C)=CCCC(C(=O)O)C1CC(O)C2(C)C3=CCC4C(C)(CCC(O)C4(C)C)C3=CCC12C (centres unmarked) [compound (V)]	> 80 µM	> 80 µM	> 80 µM	> 80 µM	> 80 µM									
1.5 µM	C=C(CCC(C(=O)O)C1CCC2(C)C3=C(CCC12C)C1(C)CCC(O)C(C)(C)C1CC3)C(C)C (centres unmarked) [compound (XII)]	> 80 µM	> 80 µM	> 80 µM	> 80 µM	> 80 µM									
	C=C(CC[C@@H](C)[C@H]1CC[C@H]2C3=C(C(=O)C[C@]12C)[C@@]1(C)CCC(=O)[C@@H](C)[C@@H]1CC3=O)[C@@H](C)C(=O)O [compound (VIII)]	> 80 µM		> 80 µM	> 80 µM		25 µM	25 µM							
	C=C(CC[C@@H](C)[C@H]1CC[C@H]2C3=C(CC[C@]12C)[C@@]1(C)CC[C@@H](O)C(C)(C)[C@@H]1C[C@@H]3O)[C@@H](C)C(=O)O [compound (XI)]	> 80 µM	> 80 µM	> 80 µM	> 80 µM	> 80 µM									
	C=C(CC[C@@H](C)[C@H]1CC[C@H]2C3=C(C(=O)[C@H](O)[C@]12C)[C@@]1(C)CC[C@@H](O)[C@@H](C)[C@@H]1CC3=O)[C@@H](C)C(=O)O [compound (I)]	> 80 µM	> 80 µM	> 80 µM	25 µM	> 80 µM			about 2 fold	about 2 fold	about 40%	act as agonists; also recorded: induce/enhance FXR activity	no impact		
	C=C(CC[C@@H](C(=O)O)[C@H]1C[C@H](O)[C@@]2(C)C3=CC[C@H]4C(C)(C)C(O)CC[C@]4(C)C3=CC[C@]12C)C(C)C (some centres unmarked) [compound (VI)]	> 80 µM	> 80 µM	> 80 µM	> 80 µM	> 80 µM									
	C=C(CC[C@@H](C)[C@H]1CC[C@H]2C3=C(C(=O)C[C@]12C)[C@@]1(C)CCC(=O)[C@@H](C)[C@@H]1C[C@@H]3O)[C@@H](C)C(=O)O [compound (IV)]	70 µM	> 80 µM	> 80 µM	> 80 µM	> 80 µM								~80 µM	
	C=C(CC[C@@H](C)[C@H]1CC[C@H]2C3=C(C(=O)[C@H](O)[C@]12C)[C@@]1(C)CC[C@@H](O)[C@@H](C)[C@@H]1CC3=O)[C@H](C)C(=O)O [compound (II)]	> 80 µM	> 80 µM	> 80 µM	40 µM	> 80 µM				about 2 fold		act as agonists; also recorded: induce/enhance FXR activity	no impact		
	C=C(CCC(C(=O)O)[C@H]1C[C@H](OC(C)=O)[C@@]2(C)C3=CC[C@H]4C(C)(C)[C@@H](O)CC[C@]4(C)C3=CC[C@]12C)C(C)C (some centres unmarked) [compound (IX)]	> 80 µM	> 80 µM	> 80 µM	> 80 µM	> 80 µM									
	C=C(CC[C@@H](C)[C@H]1CC[C@H]2C3=C(C(=O)C[C@]12C)[C@@]1(C)CCC(=O)[C@@H](C)[C@@H]1CC3=O)[C@H](C)C(=O)O [compound (VII)]	> 80 µM			> 80 µM		20 µM	40 µM							40 µM
	C=C(CC[C@@H](C)[C@H]1CC[C@H]2C3=C(C(=O)C[C@]12C)[C@@]1(C)CCC(=O)[C@@H](C)[C@@H]1C[C@@H]3O)[C@H](C)C(=O)O [compound (III)]	> 80 µM	> 80 µM	> 80 µM	> 80 µM	> 80 µM									
